Experiments:
kochia = assay: Test A preemergence; type: in vivo, Kochia scoparia
Method in brief: (§1)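 Greenhouse pot test, loam/sand soil. Formulation: non-phytotoxic solvent mix plus surfactant. Pre: directed spray onto soil after sowing. Post: plants at 1–2 leaf, 2–10 cm. Rated visually vs untreated controls at ~10 d, 0 (no effect) to 100 (complete control).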

ragweed = assay: Test A preemergence; type: in vivo, Ambrosia elatior
Method in brief: as §1

Italian ryegrass [1] = assay: Test A preemergence; type: in vivo, Lolium multiflorum
Method in brief: as §1

barnyardgrass [2] = assay: Test A postemergence; type: in vivo, Echinochloa crus-galli; conditions: 0 to 100 scale, 0 no effect, 100 complete control
Method in brief: as §1

corn [3] = assay: Test A postemergence; type: in vivo, Zea mays; conditions: 0 to 100 scale, 0 no effect, 100 complete control
Method in brief: as §1

rice = assay: Test B flooded paddy test; type: in vivo, Oryza sativa; conditions: Flood, 250 g ai/ha; 0 to 100 scale where 0 is no effect and 100 is complete control
Method in brief: (§2)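 Evaluation is visual, against untreated controls, 13 to 15 days after treatment. Before treatment, plants reached the 2-leaf stage; pots were then flooded 3 cm deep, compound was added to the water, and that level was maintained. Ratings run 0 to 100, with 100 meaning complete control.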

Heteranthera limosa = assay: Test B flooded paddy test; type: in vivo; conditions: Flood, 250 g ai/ha; 0 to 100 scale where 0 is no effect and 100 is complete control
Method in brief: as §2

barnyardgrass [4] = assay: Test B flooded paddy test; type: in vivo, Echinochloa crus-galli; conditions: Flood, 250 g ai/ha; 0 to 100 scale where 0 is no effect and 100 is complete control
Method in brief: as §2

galium [5] = assay: Test C preemergence; type: in vivo, Galium aparine; conditions: for Galium plant response rating: preemergence
Method in brief: (§3)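 Plants were kept under greenhouse conditions for 13–15 days following spray. Pre-emergent application went to soil (loam–sand), post-emergent to foliage at 1–4 leaves. Evaluation: visual, percent control against untreated checks.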

corn [6] = assay: Test C preemergence; type: in vivo, Zea mays; conditions: for Corn plant response rating: preemergence
Method in brief: as §3

Italian ryegrass [7] = assay: Test C postemergence; type: in vivo, Lolium multiflorum
Method in brief: as §3

galium [8] = assay: Test C postemergence; type: in vivo, Galium aparine
Method in brief: as §3

corn [9] = assay: Test C postemergence; type: in vivo, Zea mays
Method in brief: as §3

lambsquarters = assay: Test C postemergence; type: in vivo, Chenopodium album
Method in brief: as §3

pigweed = assay: Test C postemergence; type: in vivo, Amaranthus retroflexus
Method in brief: as §3

waterhemp = assay: Test C postemergence; type: in vivo, Amaranthus rudis
Method in brief: as §3

[10] = 31 g ai/ha, 0 to 100 scale where 0 is no effect and 100 is complete control, visual, approximately 10 days
[11] = 16 g ai/ha, scale 0 to 100 (0 no effect, 100 complete control)
[12] = 125 g ai/ha, scale 0 (no effect) to 100 (complete control)
[13] = Preemergence, 62 g ai/ha, scale 0 to 100, 0 no effect, 100 complete control
[14] = 16 g ai/ha, postemergence, 0 is no effect, 100 is complete control
[15] = 31 g ai/ha, postemergence, visual rating, scale 0 to 100 (0 no effect, 100 complete control), 13 to 15 days
[16] = 125 g ai/ha, postemergence, visual rating, scale 0 to 100 (0 no effect, 100 complete control)
[17] = Postemergence, 62 g ai/ha, scale 0 to 100 (0 no effect, 100 complete control), 13 to 15 days

FC(F)Oc1cnn(-c2c(Cl)cccc2Oc2ncc(Cl)cn2)c1 [Compound 258]
Plant response rating, Kochia (kochia; [10]): 90 | Kochia plant response rating (0 to 100 scale) (kochia; 125 g ai/ha): 90 | Plant response rating, Ragweed (ragweed; [10]): 0 | Ragweed plant response rating (0 to 100 scale) (ragweed; 125 g ai/ha): 40 | Plant response rating, Ryegrass, Italian (Italian ryegrass [1]; [10]): 0 | Ryegrass, Italian plant response rating (0 to 100 scale) (Italian ryegrass [1]; 125 g ai/ha): 10 | Plant response rating, Barnyardgrass (barnyardgrass [2]; 31 g ai/ha): 10 | Plant response rating, Barnyardgrass (barnyardgrass [2]; 125 g ai/ha): 90 | Plant response rating, Corn (corn [3]; 31 g ai/ha): 10 | Plant response rating, Corn (corn [3]; 125 g ai/ha): 40 | Plant response rating, Rice (rice): 30 | Plant response rating, Ducksalad (Heteranthera limosa): 100 | Plant response rating, Barnyardgrass (barnyardgrass [4]): 60 | Galium plant response rating (galium [5]; [11]): 80 | Galium plant response rating (galium [5]; [12]): 100 | Plant response rating, Galium (galium [5]; [13]): 100 | Corn plant response rating (corn [6]; [11]): 0 | Corn plant response rating (corn [6]; [12]): 65 | Plant response rating, Corn (corn [6]; [13]): 45 | Plant response rating (0 to 100), Ryegrass, Italian (Italian ryegrass [7]; [14]): 0 | Ryegrass, Italian plant response rating (Italian ryegrass [7]; [15]): 0 | Plant response rating, Ryegrass, Italian (Italian ryegrass [7]; [16]): 30 | Plant response rating, Ryegrass, Italian (Italian ryegrass [7]; [17]): 0 | Plant response rating (0 to 100), Galium (galium [8]; [14]): 85 | Galium plant response rating (galium [8]; [15]): 90 | Plant response rating, Galium (galium [8]; [16]): 100 | Plant response rating, Galium (galium [8]; [17]): 95 | Plant response rating (0 to 100), Corn (corn [9]; [14]): 5 | Corn plant response rating (corn [9]; [15]): 5 | Plant response rating, Corn (corn [9]; [16]): 20 | Plant response rating, Corn (corn [9]; [17]): 10 | Plant response rating (0 to 100), Lambsquarters (lambsquarters; [14]): 50 | Lambsquarters plant response rating (lambsquarters; [15]): 65 | Plant response rating, Lambsquarters (lambsquarters; [16]): 90 | Plant response rating, Lambsquarters (lambsquarters; [17]): 90 | Plant response rating (0 to 100), Pigweed (pigweed; [14]): 75 | Pigweed plant response rating (pigweed; [15]): 85 | Plant response rating, Pigweed (pigweed; [16]): 90 | Plant response rating, Pigweed (pigweed; [17]): 85 | Plant response rating (0 to 100), Waterhemp (waterhemp; [14]): 65 | Waterhemp plant response rating (waterhemp; [15]): 70 | Plant response rating, Waterhemp (waterhemp; [16]): 90 | Plant response rating, Waterhemp (waterhemp; [17]): 80

Reference: patent US9695155B2, “Herbicidal substituted pyrimidinyloxy benzene compounds” (E. I. DU PONT DE NEMOURS AND COMPANY, priority 2013, dated 2017)
